Measurements from patent publication US8575368B2, “Proanthocyanidin of cashew apple, composition containing proanthocyanidin, and application thereof” (Nichirei Biosciences, Inc., priority 2008, dated 2013).
Where a name gives a salt, the structure may show the parent alone. Read-outs that look alike come from different tables or passages of the source.

What was measured:
[1] = target: lipase from Pseudomonas sp. (type XIII); assay: Bacterial lipase inhibitory activity test (4-methylumbelliferyl oleate fluorescence); assay type: biochemical; details: 0.1 μg/ml lipase solution
Source text: In order to extensively evaluate lipase inhibitory activities of the product of the present invention and of a plurality of known components, lipase derived from commercially available bacteria of Pseudomonas (Pseudomonas sp.) was used. Pseudomonas is a […] of gram-negative aerobic bacteria. A representative example of well-known bacteria is P. aeruginosa. In the experiment, lipase from Pseudomonas sp. (type XIII, ≧15 units/solid, L9518, Sigma-Aldrich Japan) was used. This lipase is a very potent enzyme. From the preliminary inquiry to the inhibitory activity test, 0.1 μg/ml of a lipase solution was used. In the experiment, fractions obtained in Examples 2 and 3 containing proanthocyanidin polymers derived from cashew apple of the present invention were subjected to the assay. The following reagent was used as a control sample to assay lipase inhibitory activity.
Assay was carried out in accordance with Non-Patent Document 2 (J. Agric. Food Chem., 2007, 55, 4604-4609). A specimen diluent and a blank solution (a specimen diluent) were added to a 96-well fluorescence plate and then at 25 μl/well. A lipase solution prepared with the use of PBS(−) (lipase from Pseudomonas sp. Type XIII, SIGMA) was added to the test of the present invention at 25 μl/well and PBS(−) was added to the blind test group at 25 μl/well. A 0.1 mM fluorescent substrate solution (4-methylumbelliferyl oleate, Fluka) prepared with the use of PBS(−) was added thereto at 50 μl/well, and the reaction was then allowed to proceed for 20 minutes. A 0.1 M sodium citrate solution (pH 4.2) was added as a reaction terminator at 100 μl/well, and fluorescence intensity was assayed using a fluorescence plate reader (Ex 365 nm, Em 450 nm). Lipase inhibitory activity was determined by the following formula. 3,4-Dihydroxycinnamic acid and gallic acid were dissolved in an aqueous solution of 10% methanol, and a blank solvent was subjected to the assay with the use of an aqueous methanol solution at the same concentration.
<Calculation Formula> Lipase inhibitory activity(%)=(1−(A−B)/(C−D))×100 A: fluorescence intensity in the blind test using a sample solution B: fluorescence intensity in the test of the present invention using a sample solution C: fluorescence intensity in the blind test using a blank solution (a dilute solvent) D: fluorescence intensity in the test of the present invention using a blank solution (a dilute solvent)
Enzyme inhibitory activities of the sample solutions were assayed at a plurality of concentrations, the data were logarithmically plotted, and the concentration at which 50% of lipase activity was inhibited (IC50) was determined by the least-square method.
Using the powders prepared by fractionation via ultrafiltration and lyophilization in Example 3, the relationship between the molecular weight and the bacterial lipase inhibitory activity was examined. The lipase inhibitory activity test was carried out in the manner described in Example 9.

[2] = target: T1, lipase from porcine pancreas Type II (Sus scrofa, UniProt P00591); assay: Lipase inhibitory activity assay (4-methylumbelliferyl oleate fluorescence); assay type: biochemical; details: final specimen concentration; porcine pancreatic lipase
T1 construct: lipase from porcine pancreas Type II, SIGMA; purchased SIGMA; host or cells: porcine pancreas
Experimental: Assay was carried out in accordance with Non-Patent Document 2 (J. Agric. Food Chem., 2007, 55, 4604-4609). A specimen solution was added to a 96-well fluorescence plate at 25 μl/well. A lipase solution (lipase from porcine pancreas Type II, SIGMA) prepared with the use of PBS(−) was added to the plate of the test group at 25 μl/well and PBS(−) was added to the plate of the blind test group at 25 μl/well. A 0.1 mM fluorescent substrate solution (4-methylumbelliferyl oleate, Fluka) prepared with the use of PBS(−) was added thereto at 50 μl/well, and the reaction was then allowed to proceed for 20 minutes. A 0.1 M sodium citrate solution (pH 4.2) was added as a reaction terminator at 100 μl/well, and fluorescence intensity was assayed using a fluorescence plate reader (Ex 365 nm, Em 450 nm). In a blank test, samples of the test group and of the blind test group were prepared and fluorescence intensity was assayed in the same manner as described above, except that the same amount of a solvent used for the preparation of a specimen solution was used instead of “specimen solution.” The percentage of lipase inhibition was determined by the following formula. […]

lipase [3] = target: T2, lipase (Sus scrofa, UniProt P00591); details: Non-Patent Document 2; read-out: Lipase inhibitory activity (IC50) (converted); cited from earlier work
T2 sequence (P00591 1-450): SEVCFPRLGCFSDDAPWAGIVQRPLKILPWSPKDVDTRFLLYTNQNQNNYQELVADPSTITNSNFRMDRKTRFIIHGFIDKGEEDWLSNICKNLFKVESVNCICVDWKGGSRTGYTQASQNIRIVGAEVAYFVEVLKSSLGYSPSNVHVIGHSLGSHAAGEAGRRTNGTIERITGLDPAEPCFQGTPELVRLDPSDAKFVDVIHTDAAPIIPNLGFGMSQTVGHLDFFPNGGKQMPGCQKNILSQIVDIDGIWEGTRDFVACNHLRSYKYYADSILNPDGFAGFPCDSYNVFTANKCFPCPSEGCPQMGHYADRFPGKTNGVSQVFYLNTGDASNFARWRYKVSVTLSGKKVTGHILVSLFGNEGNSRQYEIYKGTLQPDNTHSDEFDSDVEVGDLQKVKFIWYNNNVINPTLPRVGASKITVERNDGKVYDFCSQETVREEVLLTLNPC

[4] = Assay of antioxidation activity via DPPH radical elimination; details: 30° C., 30 minutes, absorbance 517 nm
Experimental: A solution of a stable radical, diphenyl-p-picrylhydradil (DPPH), in ethanol was used to evaluate the antioxidation activity. Ethanol (1,200 μl) and 400 μl of specimens (adjusted at an arbitrary concentration) were mixed with 1,600 μl of 250 mM acetate buffer (pH 5.5), and the mixture was preincubated at 30° C. for 5 minutes. A 500 μM DPPH/ethanol solution (800 μl) was added thereto, the resulting mixture was allowed to stand at 30° C. for 30 minutes, and the absorbance at 517 nm was assayed. When the control sample dissolved in ethanol was used as a specimen, 800 μl of ethanol, 400 μl of a solution of specimens in ethanol, and 400 μl of purified water were mixed, and the resulting mixture was preincubated at 30° C. for 5 minutes. A 500 μM DPPH/ethanol solution (800 μl) was added thereto, the resulting mixture was allowed to stand at 30° C. for 30 minutes, and the absorbance at 517 nm was assayed. A solution prepared in the same manner except for the use of purified water was used as a control sample. Based on the absorbance assayed, the percentage of radical elimination was determined by the following formula. Radical elimination(%)=(1−[absorbance of sample]/[absorbance of control])×100
The concentration of the sample in the sample solution was gradually changed to determine the percentage of radical elimination, the concentration of the sample solution at which the percentage of DPPH radical elimination became 50% was determined, and the determined value was designated as the 50% elimination concentration of DPPH radicals. As the value is reduced, the capacity for radical elimination is enhanced.

lipase [5] = target: T2, lipase; details: cited from earlier work; for IC50: read-out: Lipase inhibitory activity (IC50)

Row | Molecule | Activity of bacterial lipase inhibition (IC50) [1] [µg/mL] | 50% Elimination concentration of DPPH radicals [4] [µg/mL] | other results
1 | O=C(/C=C/c1ccc(O)c(O)c1)O[C@@H]1C[C@](O)(C(=O)O)C[C@@H](O)[C@H]1O [Chlorogenic acid, chlorogenic acid] | 69.2 | – | IC50 [2]: 219 µM; IC50 (lipase [3]): 169 µM
2 | O=C1O[C@H]([C@@H](O)CO)C(O)=C1O [L(+)-ascorbic acid] | – | 3.9 | –
3 | O.O=C(O)c1cc(O)c(O)c(O)c1 [Gallic acid monohydrate] | 574.2 | 1.2 | –
4 | CN(C)[C@@H]1C(O)=C(C(N)=O)C(=O)[C@@]2(O)C(O)=C3C(=O)c4c(O)cccc4[C@@](C)(O)[C@H]3C[C@@H]12 [Tetracycline hydrochloride] | 134.6 | – | –
5 | (−)-epigallocatechin 3-O-gallate [Epigallocatechin gallate] | 918.8 | 2.0 | IC50 (lipase [5]; Patent Document 4): 284 nM; Lipase inhibitory activity (IC50) (lipase [5]; Patent Document 5, value in brackets): 0.16 µg/mL; IC50 (lipase [5]; Patent Document 5): 349 nM; Lipase inhibitory activity (IC50) [2]: 20.0 µg/mL
6 | O=C(O)C=Cc1ccc(O)c(O)c1 [3,4-Dihydroxycinnamic acid] | 42.3 | 2.8 | –
